One data set concerns T98G cells. Briefly: cytotoxicity in mammalian cells. In kind it is cell-based. Particulars: read-out: IC50 mammalian cells.
In a further data set the test system is T. b. brucei. Briefly: growth inhibitory activity against axenic T. b. brucei parasites. In kind it is cell-based, Trypanosoma brucei. Particulars: highest concentration tested 10 μM; for IC50: read-out: IC50 T. b. brucei.
The test system of a further data set is HeLa cells. Put plainly: cytotoxicity in mammalian cells. The format is cell-based. Particulars: read-out: IC50 mammalian cells.
The conditions of data set [1]: HAT treatment; cited from earlier work.

Structures are written as SMILES. Read-outs that look alike come from different tables or passages of the source. A value given as a limit tells only on which side of the number the result lay.

In general, IC50 refers to the concentration needed to halve the response being measured.

As for `CC1=CC=CC[C@H](C)NC(=O)C=CC=CC=C[C@H](C)[C@@H](O)[C@H](O)[C@@H](O)C[C@@H](O)/C=C/C=CC(C)=C1` [Lobosamide B], the IC50 in the data set with T98G cells is more than 66 µM; in the data set with T. b. brucei it was 6.1 µM; in the data set on T. b. brucei (listed as B), less than 10 µM.
Turning to `CC1=CC=CC[C@H](C)NC(=O)C=CC=CC=C[C@H](C)[C@@H](O)[C@H](O)[C@@H](O)C[C@@H](O)/C=C\C=CC(C)=C1` [Lobosamide A], in the data set with T98G cells, the IC50 is more than 66 µM. Further, in the data set with T. b. brucei, the “antitrypanosomal activity (in words)” value is given as “sub-micromolar” and the IC50 was found to be 0.8 µM.
With `CC1=CC=CC[C@H](C)NC(=O)C=CC=CC=C[C@H](C)[C@@H](O)C[C@@H](O)C[C@@H](O)/C=C\C=CC(C)=C1` [Lobosamide C], the IC50 is more than 33 µM in the data set with HeLa cells and more than 10 µM with T. b. brucei. In addition, in the data set on T. b. brucei, the “antitrypanosomal activity (in words)” value is “inactive”.
As to `Nc1nc(N)nc(Nc2ccc([As]3SCC(CO)S3)cc2)n1` (centres unmarked) [melarsoprol], the drug-induced death rate in data set [1] was 5%.
`CC1=CC=CC=CC[C@H](C)NC(=O)C=CC=CC=CC[C@@H](O)[C@H](O)[C@@H](O)C[C@@H](O)C=CC=C1` [Mirilactam A]: in the data set with T. b. brucei, the “antitrypanosomal activity (in words)” value is recorded as “lack of activity” and the IC50 is more than 10 µM.
Turning to `CC1=CC=CC=CC[C@H](C)NC(=O)C=CC=CC=CC[C@@H](O)C[C@@H](O)C[C@@H](O)C=CC=C1` [Mirilactam B], the IC50 in the data set with HeLa cells was more than 33 µM; in the data set with T. b. brucei it was more than 10 µM.

The values above are taken from PMC7505085 (ACS chemical biology, 2015).
